Measured values reported in patent US20190008957A1, “COMBINATION THERAPIES INCLUDING INHIBITORS OF THE EXTRACELLULAR DOMAIN OF E-CADHERIN” (The Research Foundation for The State of New York, priority 2012, published 2019).
Where a SMILES comes first, the peptide text is derived from it. [ ]: non-standard residue; d: D form. Nle = CCCC[C@H](N)C(=O)O

Key:
[1] = tested on: HER1, HER2, IGF-1R; test: Western blot of receptor phosphorylation in skin and oropharyngeal SCC cell lines; format: cell-based; conditions: PAM212 cells
Experimental: (§2) After brief sonication, lysates were cleared by centrifugation at 4° C. […] After transfer to nitrocellulose membrane and blocking with 1% BSA, samples were probed with primary antibodies. Western blot images were captured using HP Scanjet G4050 and analyzed relative to G3PDH or actin using NIH Scion Image.
(§3) Antibodies against total HER1 and HER 4 and phosphorylated HER1-4, pPI3K, pAkt, pmTOR, p4E-BP1, pRaptor and pp70S6K obtained from Cell Signaling Technologies. Monoclonal antibodies to HER3 and HER4 were obtained from Thermo Scientific. Polyclonal antibody to the extracellular domain of E-cadherin and monoclonal antibody to α-actin were obtained from Santa Cruz Biotechnology. Monoclonal antibody to the extracellular domain of E-cadherin (DECMA-1) and to His Tag were obtained from Sigma and Abcam, respectively. Monoclonal antibody to G3PDH, ubiquitin and rat IgG1 were obtained from Ambion, Zymed and Southern Biotechnology, respectively.

[2] = tested on: MCF-7, SKBR3 and MDA-MB-231 breast cancer cell lines; test: BrdU proliferation in breast cancer cell lines; format: cell-based, human; conditions: for basal and sEcad-induced BrdU incorporation: breast cancer cells, Canertinib 1 μM, Lapatinib 5 μM, Gefitinib 5 μM
Experimental: (§1) For BrdU staining, cells were incubated with 10 μM BrdU for 2 h prior to fixation and processed for immunofluorescence microscopy as previously described (Brouxhon et al., Cancer Res. 67:7654-64, 2007). For BrdU analyses, cells were counted from 6 low-power fields (×100) per section. BrdU incorporation was also analyzed by a cell proliferation ELISA 5-bromo-2′-deoxyuridine (BrdU) (colorimetric) kit (Roche, Stockholm, Sweden), according to the manufacturer's instructions. Migration and invasion of cells were measured using 8.0 μm pore BD BioCoat Control Insert 24-well plates (no. 354578) and Matrigel Invasion Chamber 24-well Plates (no. 354480), respectively (BD Bioscience). Cells were collected, washed, and 2×10^5 cells were plated in 0.4% FBS medium in the top chamber, with 0-20 μg/mL of rhEcad/Fc in the bottom chamber. After 22 h, cells on the top were removed using a cotton swab. Migrated or invaded cells on the lower surface were fixed with methanol, stained with 0.5% crystal violet, examined by bright field microscopy and photographed. Migration or invasion was quantitated by counting migrated or invaded cells in at least ten random high-power fields per insert and expressed as averages. Results are presented as fold change of the number of migrated/invaded cells to the untreated controls in triplicate experiments.

[3] = tested on: oropharyngeal FADU and skin SCC (PAM212, CC4A, SCC13 and SCC12b) cell lines; test: Proliferation in oropharyngeal and skin SCC cell lines; format: cell-based; conditions: PAM212 skin SCC cells; HER inhibitors
Experimental: as §1

[4] = tested on: skin (PAM212, CC4A, SCC12b, SCC13) and oropharyngeal (FADU) cells; test: Transwell migration of SCC cells; format: cell-based; conditions: PAM212 skin SCC cells; HER inhibitors
Experimental: as §1

[5] = tested on: skin (SCC12b, SCC13, PAM212 and CC4A) and the head & neck FADU cell line; test: Matrigel invasion of SCC cells; format: cell-based; conditions: for sEcad-induced invasion: PAM212 skin SCC cells, HER inhibitors
[6] = tested on: lysosome and ubiquitin-proteasome pathways; test: Lysosome/proteasome inhibitor rescue of anti-sEcad mAb-induced apoptosis and HER1-4 expression; format: cell-based
Experimental: Cellular apoptosis was quantitatively determined using the Cell Death Apoptosis Detection ELISA Plus kit (Boehringer Mannheim), which is based on the detection of DNA-histone complexes in the form of mono- and oligo-nucleosomes, according to the manufacturer's instructions. Briefly, cells were treated in the presence or absence of various concentrations of DECMA-1 or rat IgG1 for 24 to 48 h. Cells were harvested by trypsinization, counted and lysates were subjected to the ELISA. In vitro and in vivo apoptosis was further analyzed by in situ detection of fragmented DNA, using the DeadEnd Fluorometric TUNEL System (Promega), the ApopTag Peroxidase In situ Apoptosis Detection Kit (Millipore) and the human Apoptosis Array Kit (ARY009, R & D), according to the manufacturer's instructions. The ApopTag kit was performed on deparaffinized 5 μm-thick sections treated with proteinase K (20 μg/ml) at RT. For cell counting, the cells were trypsinized and counted on a haemocytometer. For tumor BrdU analyses, tissues were stained using an anti-BrdU (ab2284, abcam) antibody, as previously described (27). The proliferation of cells was monitored by a cell proliferation ELISA 5-bromo-2′-deoxyuridine (BrdU) (colorimetric) kit (Roche, Stockholm, Sweden), according to the manufacturers protocol.
Human MCF-7 and BT474 parental cells were purchased from the American Type Culture Collection (ATCC), and cultured according to ATCC recommendations. BT474-Herceptin resistant cells were a kind gift of Dr. Kute (Wake Forest University, Winston-Salem, N.C.) and grown in 10% FBS RPMI-1640 medium (ATCC). Anti-sEcad ectodomain-specific antibodies include DECMA-1 (Sigma), HECD-1 (Calbiochem), SHE78-7 (Calbiochem) and H108 (Santa Cruz Biotechnology). The IAP antibody sampler kit was purchased from Cell Signaling. ALLN proteasome and chloroquine lysosome inhibitors were obtained from Sigma.

[7] = tested on: HER1-4; test: Western blot of HER phosphorylation in breast cancer cells; format: cell-based, human; conditions: MCF-7 cells, equimolar concentrations, compared to sEcad alone
From the text: The association of sEcad with these RTK was also confirmed by in vitro studies. Specifically, in cell culture systems, extracts from sEcad (rhEcad/Fc:His tagged) treated E-cadherin positive MCF-7 and E-cadherin negative SKBR3 and MDA-MB-231 breast cancer cells were immunoprecipitated with HER1-4-specific antibodies and analyzed by western blotting with a His-tagged-specific antibody. Here, we detected HER1-4-sEcad, HER1-2-sEcad and HER1-sEcad interactions in MCF, SKBR3 and MDA-MB-231 breast cancer cells, respectively. […] Because ligand binding to the HER family of receptors induces the formation of homo- and heterodimers, resulting in phosphorylation on specific tyrosine residues within the cytoplasmic domain (Yarden and Siliwkowski, Nature Reviews. 2:127-137, 2001), we next used western blot assays to examine whether sEcad promotes HER phosphorylation and downstream signaling.
Immunoprecipitation assays were carried out by harvesting tissues or cells with immunoprecipitation lysis buffer (20 mM Tris-HCl, pH 7.5; 137 mM NaCl; 100 mM NaF; 10% glycerol (vol/vol); 1% (vol/vol) Nonidet P-40; 1 mM PMSF and protease inhibitor cocktail (Sigma)). After brief sonication, lysates were cleared by centrifugation at 4° C. […] Western blot images were captured using HP Scanjet G4050 and analyzed relative to G3PDH or actin using NIH Scion Image. […]

[8] = tested on: breast (MCF-7, SKBR3) cells; test: Transwell migration of breast cancer cells; format: cell-based, human
Experimental: as §1, with “After 22 h, cells on the top were removed using a cotton swab.” left out

[9] = tested on: MDA-MB-231 and MCF-7 breast cancer cells; test: Matrigel invasion of breast cancer cells; format: cell-based, human
Experimental: as §1, with “After 22 h, cells on the top were removed using a cotton swab.” left out

[10] = tested on: MEK1/2, ERK1/2, PI3K, Akt, mTOR, p70S6K, 4EBP1; test: Western blot of downstream MAPK-PI3K/Akt/mTOR signaling in SCC cell lines; format: cell-based; conditions: PAM212 cells
Experimental: as §2, §3

[11] = MCF-7 cells, 24 h, equimolar concentrations

Compound: C=CC(=O)Nc1cc2c(Nc3ccc(F)c(Cl)c3)ncnc2cc1OCCCN1CCOCC1 [Canertinib]
- sEcad-induced HER1 phosphorylation [1]: completely abrogated
- sEcad-induced HER2 phosphorylation (pHER2) [1]: completely abrogated
- phospho-IGF-1R levels ([1]; in the presence of sEcad, compared to corresponding controls): did not alter
- basal and sEcad-induced BrdU incorporation [2]: significantly reduced both basal and sEcad-induced BrdU incorporation
- sEcad-induced proliferation [3]: effectively inhibited sEcad-induced proliferation, migration and invasion
- sEcad-induced migration [4]: effectively inhibited sEcad-induced proliferation, migration and invasion
- sEcad-induced invasion [5]: effectively inhibited sEcad-induced proliferation, migration and invasion

Compound: CCN(CC)CCCC(C)Nc1ccnc2cc(Cl)ccc12 (stereo not shown) [Chloroquine]
- HER1-4 expression in anti-sEcad mAb treated cells in presence of inhibitor [6]: rescued HER1-4 membrane expression
- anti-sEcad mAb-induced apoptosis in presence of inhibitor [6]: prevented anti-sEcad mAb-induced apoptosis at low doses

Compound: rhEGF: Recombinant human EGF (Enzo Life Sciences) (NSDSECPLSHDGYCLHDGVCMYIEALDKYACNCVVGYIGERCQYRDLKWWELR)
- HER1 and ERK1/2 phosphorylation [7]: more potent effects on HER1 and ERK1/2 phosphorylation
- proliferation [2, 11]: significantly increased proliferation, migration and invasion
- migration [8, 11]: significantly increased proliferation, migration and invasion
- invasion [9, 11]: significantly increased proliferation, migration and invasion

Compound: CNC(=O)[C@H](Cc1c[nH]c2ccccc12)NC(=O)[C@@H](CC(=O)NO)CC(C)C [GM6001, Ilomastat]
- sEcad-stimulated invasion ([5]; PAM212 cells treated with 20 μg/mL rmEcad/Fc): completely blocked

Compound: COc1cc2ncnc(Nc3ccc(F)c(Cl)c3)c2cc1OCCCN1CCOCC1 [Gefitinib]
- sEcad-induced phosphorylation of 4EBP1 [10]: only minimal effects
- sEcad-induced phosphorylation of ERK1/2, Akt and p70S6K [10]: decreased
- sEcad-induced phosphorylation of PI3K [10]: decreased
- basal and sEcad-induced BrdU incorporation [2]: significantly reduced both basal and sEcad-induced BrdU incorporation
- sEcad-induced proliferation [3]: effectively inhibited sEcad-induced proliferation, migration and invasion
- sEcad-induced migration [4]: effectively inhibited sEcad-induced proliferation, migration and invasion
- basal and sEcad-induced invasion ([9]; MDA-MB-231 cell line, compared to untreated controls): significantly reduced
- sEcad-induced invasion [5]: effectively inhibited sEcad-induced proliferation, migration and invasion

Compound: CCCC[C@@H](C=O)NC(=O)[C@H](CC(C)C)NC(=O)[C@H](CC(C)C)NC(C)=O [ALLN] (Ac-Leu-Leu-[Nle]-aldehyde)
- HER1-4 expression in anti-sEcad mAb treated cells in presence of inhibitor [6]: rescue of HER1-4 expression
- anti-sEcad mAb-induced apoptosis in presence of inhibitor [6]: inhibited

Compound: FC(F)(F)c1ccc(/C=C/c2nc(COc3ccc(CCCCn4ccnn4)cc3)co2)cc1 [Mubritinib]
- basal and rhEcad/Fc-mediated migration ([8]; breast cancer cells (MCF-7)): only blocked sECad-induced MCF-7 migration
